Data: BigSolDB 2.1

CCOC(=O)Cc1c(C(=O)OCC)sc(N)c1C#N
solubility (mole fraction)
Details | 273.15 K | 278.15 K | 283.15 K | 288.15 K | 293.15 K | 298.15 K | 303.15 K | 308.15 K | 313.15 K | 318.15 K
in acetone | 0.0446 | 0.0499 | 0.0558 | 0.0628 | 0.071 | 0.0801 | 0.0902 | 0.101 | 0.113 | 0.126
in acetonitrile | 0.0082 | 0.0102 | 0.0125 | 0.0151 | 0.0185 | 0.0225 | 0.0268 | 0.0323 | 0.0385 | 0.0455
in ethanol | 0.0031 | 0.00399 | 0.00505 | 0.00637 | 0.00798 | 0.00998 | 0.0123 | 0.015 | 0.0186 | 0.0227
in ethyl acetate | 0.0237 | 0.0257 | 0.0286 | 0.0318 | 0.0349 | 0.0386 | 0.0427 | 0.0473 | 0.0519 | 0.0567
in isopropanol | 0.00232 | 0.00307 | 0.00396 | 0.00513 | 0.00656 | 0.00845 | 0.0107 | 0.0134 | 0.0168 | 0.0213
in methanol | 0.00483 | 0.00609 | 0.00759 | 0.00947 | 0.0118 | 0.0144 | 0.0176 | 0.0214 | 0.0261 | 0.0313
in n-butanol | 0.00204 | 0.00266 | 0.00343 | 0.00438 | 0.00559 | 0.0071 | 0.0091 | 0.0114 | 0.0144 | 0.0177
in n-propanol | 0.00217 | 0.00286 | 0.0036 | 0.00471 | 0.00618 | 0.00763 | 0.00961 | 0.012 | 0.0151 | 0.0188
in toluene | 0.000402 | 0.00052 | 0.000664 | 0.000858 | 0.00109 | 0.00139 | 0.00171 | 0.00215 | 0.00265 | 0.00323
